# In patent publication US8497298B2, “Use of benzo-fused heterocycle sulfamide derivatives for lowering lipids and lowering blood glucose levels” (Janssen Pharmaceutica NV, priority 2005, dated 2013):
# Test system: db/db mice
# Experiment: Female db/db Mouse Assay, Study A: single dose part and dose response part (Example 14)
# Format: in vivo
# From the text: 0.5% Hydroxypropyl Methylcellulose (Methocel) used as vehicle/control.
# Db/db mice are susceptible to Type 2 diabetes. […] All of the mice were quarantined for a period of one week before transfer to the animal procedure room. A drop of blood (about 2 microliters) was collected by tail puncture and glucose concentration was detected with a glucometer (OneTouch UltraSmart, Lifescan, Milpitas, Calif.). […] Animals were separated and single housed at least three days prior to the drug treatments to allow acclimation to the new surroundings.
# In the second, dose response part of Study A, 48 mice were allocated into 4 treatment groups of 12 mice each.
# The dosing volume was 5 mL/kg body weight (0.2 mL for 40 gram mice). The mice were fed ad lib throughout the study. A necropsy was completed 18 hours after last dosing.
# Blood glucose levels were measured from blood collected through tail puncture using a glucometer at 1000 hour. The mice were anaesthetized with sodium pentobarbital (1 ml/kg, intraperitoneal [i.p.] injection, SleepAway, Fort Dodge, Iowa) and blood was drawn via cardiac puncture using 1 mL syringe and collected into heparinized tubes. White adipose tissues (WAT) (retroperitoneal and inguinal fat pads), brown adipose tissure (BAT) and skeletal muscles (gastrocnemius and soleus muscle) and stomach contents were dissected and weighed. Plasma samples were obtained by centrifuging whole blood at 2000˜3000 g for 10˜20 minutes at 4° C. and stored at −20° C. for further measurement of insulin, HDL, LDL, total cholesterol and triglyceride.
# Plasma insulin concentrations were measured by in both studies using the appropriate rat/mouse insulin enzyme-linked immunosorbent assay (ELISA) kit (EZRMI-13K, LINCO Research, St. Charles, Mo.). Blood samples were diluted 1:4 in charcoal stripped mouse serum that was included in the ELISA kit. The rest of the procedure followed the manufacturers instruction. The total fluorescence was detected using an Orion 1 Microplate Luminometer (Berthold Detection Systems, Pforzheim, Germany).
# According to manufacturers protocol, cholesterol measurement was an enzymatic method utilizing cholesterol esterase and cholesterol oxidase conversion followed by a Trinder endpoint; Elimination/catalase method was used for HDL measurement; an enzymatic method with a Trinder endpoint was used for triglyceride measurement.
# Data from both parts of the Study (single dose and dose response) was analyzed using the standard two-tailed Student's t-test and are expressed below as means and standard errors.
# [1] = dose response part, 10 mg/kg, plasma
# [2] = dose response part, 30 mg/kg, plasma
# [3] = dose response part, 100 mg/kg, plasma
# [4] = single dose part, Compound #8 300 mg/kg
# [5] = single dose part, Compound #8 300 mg/kg oral once daily 10 days
# [6] = single dose part, Compound #8 300 mg/kg, plasma
compound,measurement,setting,value
"NS(=O)(=O)NC[C@H]1COc2cc(Cl)ccc2O1 [Compound #8, (2S)-(−)-N-(6-Chloro-2,3-dihydro-benzo[1,4]dioxin-2-ylmethyl)-sulfamide]",total cholesterol concentrations elevated relative to vehicle,"Compound #8, dose not given",18.7%
same,Brown Adipose Tissue,"dose response part, 10 mg/kg",0.23 ± 0.01 g
same,Inguinal fat,"dose response part, 10 mg/kg",2.15 ± 0.11 g
same,Insulin,"dose response part, 10 mg/kg",11.9 ± 2.5 ng/mL
same,Muscle,"dose response part, 10 mg/kg",0.140 ± 0.004 g
same,Ratio (Triglyceride to HDL),"dose response part, 10 mg/kg",3.5 ± 0.3
same,Ratio (fat/muscle),"dose response part, 10 mg/kg",25.9 ± 0.8
same,Retroperitoneal fat,"dose response part, 10 mg/kg",1.47 ± 0.04 g
same,Glucose,"dose response part, 10 mg/kg oral once daily 10 days",420 ± 10 mg/dL
same,Cholesterol,[1],92 ± 3 mg/dL
same,HDL,[1],47.1 ± 1.5 mg/dL
same,Triglyceride,[1],166 ± 13 mg/dL
same,Brown Adipose Tissue,"dose response part, 30 mg/kg",0.22 ± 0.01 g
same,Inguinal fat,"dose response part, 30 mg/kg",1.97 ± 0.07 g
same,Insulin,"dose response part, 30 mg/kg",10.8 ± 2.9 ng/mL
same,Muscle,"dose response part, 30 mg/kg",0.141 ± 0.003 g
same,Ratio (Triglyceride to HDL),"dose response part, 30 mg/kg",4.1 ± 0.3
same,Ratio (fat/muscle),"dose response part, 30 mg/kg",24.5 ± 0.5
same,Retroperitoneal fat,"dose response part, 30 mg/kg",1.49 ± 0.07 g
same,Glucose,"dose response part, 30 mg/kg oral once daily 10 days",439 ± 13 mg/dL
same,Cholesterol,[2],95 ± 2 mg/dL
same,HDL,[2],49.2 ± 1.7 mg/dL
same,Triglyceride,[2],202 ± 18 mg/dL
same,Brown Adipose Tissue,"dose response part, 100 mg/kg",0.24 ± 0.00 g
same,Inguinal fat,"dose response part, 100 mg/kg",2.05 ± 0.09 g
same,Insulin,"dose response part, 100 mg/kg",3.9 ± 1.4 ng/mL
same,Muscle,"dose response part, 100 mg/kg",0.140 ± 0.007 g
same,Ratio (Triglyceride to HDL),"dose response part, 100 mg/kg",3.3 ± 0.3
same,Ratio (fat/muscle),"dose response part, 100 mg/kg",26.3 ± 1.0
same,Retroperitoneal fat,"dose response part, 100 mg/kg",1.55 ± 0.11 g
same,hyperinsulinemia decreased compared to vehicle treated mice,"dose response part, 100 mg/kg",63.5%
same,Glucose,"dose response part, 100 mg/kg oral once daily 10 days",394 ± 17 mg/dL
same,stomach content,"dose response part, 100 mg/kg, control 0.35±0.03 g, p<0.05",0.51 ± 0.04 g
same,Cholesterol,[3],102 ± 3 mg/dL
same,HDL,[3],51.7 ± 1.7 mg/dL
same,Triglyceride,[3],169 ± 10 mg/dL
same,food intake and body weight,"dose response part, 10, 30 and 100 mg/kg groups",no differences
same,Glucose levels reduced compared to vehicle treated mice,"single dose part, 300 mg/kg",50%
same,HDL elevated compared to vehicle,"single dose part, 300 mg/kg",22.8%
same,plasma triglyceride decreased compared to vehicle,"single dose part, 300 mg/kg",39.4%
same,ratio of triglyceride to HDL reduced,"single dose part, 300 mg/kg",50.2%
same,stomach content weights versus vehicle at the end of the experiment,"single dose part, 300 mg/kg",two times greater
same,Brown Adipose Tissue,[4],0.25 ± 0.01 g
same,Final weight Body weight,[4],39 ± 0.9 g
same,Final weight Stomach contents,[4],0.52 ± 0.07 g
same,Inguinal fat,[4],2.28 ± 0.11 g
same,Muscle,[4],0.154 ± 0.00 g
same,Retroperitoneal fat,[4],1.31 ± 0.07 g
same,Total chow consumption Day 1-3,[4],14 ± 0.9 g
same,Total chow consumption Day 4-6,[4],14.9 ± 1.1 g
same,Total chow consumption Day 7-9,[4],16 ± 0.6 g
same,Glucose,[5],210 ± 27 mg/dL
same,Insulin,[5],16.0 ± 2.5 ng/mL
same,Cholesterol,[6],108 ± 3 mg/dL
same,HDL,[6],55.9 ± 1.2 mg/dL
same,LDL,[6],3.4 ± 0.2 mg/dL
same,Ratio (Triglyceride to HDL),[6],1.8 ± 0.3
same,Triglyceride,[6],98 ± 13 mg/dL
same,Ratio (fat/muscle),"single dose part, Compound #8 300 mg/kg, total inguinal and retroperitoneal fat/muscle weight",23.4 ± 0.9
